Results from patent US20230143612A1 (Arbutus Biopharma Corporation, priority 2020, published 2023).

Molecular target: PD-L1 His protein / PD-1 Fc protein (Homo sapiens, UniProt Q9NZQ7)
Test: HTRF Assay (PD-1/PD-L1 interaction)
Type: binding
Settings: PD-L1 His 6 nM, PD-1 Fc 6 nM
Method in brief: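 Compounds tested from 20 μM down to 0.001 μM (3-fold) against 6 nM PD-L1 His and 6 nM PD-1 Fc, 15 min room temperature incubation. Detection after 1 h at room temperature with Tb cryptate anti-6HIS and XL665 anti-human IgG reagents (mixture at 0.35 nM and 6.7 nM), HTRF signal.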

PD-L1 His protein / PD-1 Fc protein, sequence (Q9NZQ7 19-238 limits assumed): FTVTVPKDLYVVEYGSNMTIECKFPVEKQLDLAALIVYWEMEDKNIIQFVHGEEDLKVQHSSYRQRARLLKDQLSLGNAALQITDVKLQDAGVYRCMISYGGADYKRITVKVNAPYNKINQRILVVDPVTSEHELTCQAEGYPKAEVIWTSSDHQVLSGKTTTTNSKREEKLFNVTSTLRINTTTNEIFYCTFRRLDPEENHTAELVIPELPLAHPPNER

Row | SMILES | IC50
1 | COc1nc(-c2cccc(-c3cccc(-c4cnc5sc(N6CCN(CCO)CC6)nn45)c3Cl)c2Cl)ccc1CNC[C@@H]1CCC(=O)N1 [Example 241, (S)-5-((((6-(2,2′-Dichloro-3′-(2-(4-(2-hydroxyethyl)piperazin-1-yl)imidazo[2,1-b][1,3,4]thiadiazol-5-yl)-[1,1′-biphenyl]-3-yl)-2-methoxypyridin-3-yl)methyl)amino)methyl)pyrrolidin-2-one] | 900 nM
2 | COc1nc(-c2cccc(-c3cccc(-c4nnc5n4CCN(CCO)C5)c3Cl)c2Cl)ccc1CNC[C@@H]1CCC(=O)N1 [Example 242, (S)-5-((((6-(2,2′-Dichloro-3′-(7-(2-hydroxyethyl)-5,6,7,8-tetrahydro-[1,2,4]triazolo[4,3-a]pyrazin-3-yl)-[1,1′-biphenyl]-3-yl)-2-methoxypyridin-3-yl)methyl)amino)methyl)pyrrolidin-2-one] | 1700 nM
3 | COc1nc(-c2cccc(-c3cccc(-c4ccn5c(=O)c(CNCC6(O)COC6)cnc5c4)c3Cl)c2Cl)ccc1CNC[C@@H]1CCC(=O)N1 [Example 243, (S)-8-(2,2′-dichloro-3′-(6-methoxy-5-((((5-oxopyrrolidin-2-yl)-methyl)-amino)-methyl)pyridin-2-yl)-[1,1′-biphenyl]-3-yl)-3-((((3-hydroxyoxetan-3-yl)methyl)-amino)-methyl)-4H-pyrido[1,2-a]-pyrimidin-4-one] | 0.3 nM
4 | COc1nc(-c2cccc(-c3cccc(-c4ccn5c(=O)c(CNCC6(CO)COC6)cnc5c4)c3Cl)c2Cl)ccc1CNC[C@@H]1CCC(=O)N1 [Example 244, (S)-8-(2,2′-dichloro-3′-(6-methoxy-5-((((5-oxopyrrolidin-2-yl)methyl)amino)-methyl)-pyridin-2-yl)-[1,1′-biphenyl]-3-yl)-3-((((3-(hydroxymethyl)oxetan-3-yl)-methyl)-amino)-methyl)-4H-pyrido[1,2-a]pyrimidin-4-one] | 0.6 nM
5 | COc1nc(-c2cccc(-c3cccc(-c4ccn5c(=O)c(CNCC6(C)COC6)cnc5c4)c3Cl)c2Cl)ccc1CNC[C@@H]1CCC(=O)N1 [Example 246, (S)-8-(2,2′-dichloro-3′-(6-methoxy-5-((((5-oxopyrrolidin-2-yl)-methyl)amino)-methyl)pyridin-2-yl)-[1,1′-biphenyl]-3-yl)-3-((((3-methyloxetan-3-yl)-methyl)-amino)-methyl)-4H-pyrido[1,2-a]pyrimidin-4-one] | 6.7 nM
6 | COc1nc(-c2cccc(-c3cccc(-c4ccc5oc(CNC[C@@H]6CCC(=O)N6)nc5c4)c3Cl)c2Cl)ccc1CNC[C@@H]1CCC(=O)N1 [Example 247, (S)-5-((((6-(2,2′-Dichloro-3′-(2-(((((S)-5-oxopyrrolidin-2-yl)methyl)amino)methyl)benzo[d]oxazol-5-yl)-[1,1′-biphenyl]-3-yl)-2-methoxypyridin-3-yl)methyl)amino)methyl)pyrrolidin-2-one] | 450 nM
7 | COc1nc(-c2cccc(-c3cccc(-c4ccc5nc(CNC[C@@H]6CCC(=O)N6)oc5c4)c3Cl)c2Cl)ccc1CNC[C@@H]1CCC(=O)N1 [Example 248, (S)-5-((((6-(2,2′-Dichloro-3′-(2-(((((S)-5-oxopyrrolidin-2-yl)methyl)amino)methyl)benzo[d]oxazol-6-yl)-[1,1′-biphenyl]-3-yl)-2-methoxypyridin-3-yl)methyl)amino)methyl)pyrrolidin-2-one] | 250 nM
8 | COc1nc(-c2cccc(-c3cccc(-c4ccn5c(=O)c(CNCC67CCC(C6)C(=O)N7)cnc5c4)c3Cl)c2Cl)ccc1CNC[C@@H]1CCC(=O)N1 (stereo partly drawn) [Example 252, 8-[2-Chloro-3-[2-chloro-3-[6-methoxy-5-[[[(2S)-5-oxopyrrolidin-2-yl]methylamino]methyl]-2-pyridyl]phenyl]phenyl]-3-[[(3-oxo-2-azabicyclo[2.2.1]heptan-1-yl)methylamino]methyl]pyrido[1,2-a]pyrimidin-4-one] | 4.7 nM
9 | COc1nc(-c2cccc(-c3cccc(-c4cc(C)n5c(=O)c(CN[C@H]6C[C@@](C)(O)C6)cnc5c4)c3Cl)c2Cl)ccc1CNC[C@@H]1CCC(=O)N1 [Example 254, 8-(2,2′-Dichloro-3′-(6-methoxy-5-(((((S)-5-oxopyrrolidin-2-yl)methyl)amino)methyl)pyridin-2-yl)-[1,1′-biphenyl]-3-yl)-3-((((1s,3s)-3-hydroxy-3-methylcyclobutyl)amino)methyl)-6-methyl-4H-pyrido[1,2-a]pyrimidin-4-one] | 61 nM
10 | CNC(=O)C1CN(Cc2cnc3cc(-c4cccc(-c5cccc(-c6ccc(CNC[C@@H]7CCC(=O)N7)c(OC)n6)c5Cl)c4Cl)ccn3c2=O)C1 [Example 255, (S)-1-((8-(2,2′-Dichloro-3′-(6-methoxy-5-((((5-oxopyrrolidin-2-yl)methyl)amino)methyl)pyridin-2-yl)-[1,1′-biphenyl]-3-yl)-4-oxo-4H-pyrido[1,2-a]pyrimidin-3-yl)methyl)-N-methylazetidine-3-carboxamide] | 0.1 nM
11 | COc1nc(-c2cccc(-c3cccc(-c4ccn5c(=O)c(CNC6CCN(C(C)=O)CC6)cnc5c4)c3Cl)c2Cl)ccc1CNC[C@@H]1CCC(=O)N1 [Example 256, 3-[[(1-Acetyl-4-piperidyl)amino]methyl]-8-[2-chloro-3-[2-chloro-3-[6-methoxy-5-[[[(2S)-5-oxopyrrolidin-2-yl]methylamino]methyl]-2-pyridyl]phenyl]phenyl]pyrido[1,2-a]pyrimidin-4-one] | 0.1 nM
12 | CNC(=O)[C@H]1CCN(Cc2cnc3cc(-c4cccc(-c5cccc(-c6ccc(CNC[C@@H]7CCC(=O)N7)c(OC)n6)c5Cl)c4Cl)ccn3c2=O)C1 [Example 257, (S)-1-((8-(2,2′-Dichloro-3′-(6-methoxy-5-(((((S)-5-oxopyrrolidin-2-yl)methyl)amino)methyl)pyridin-2-yl)-[1,1′-biphenyl]-3-yl)-4-oxo-4H-pyrido[1,2-a]pyrimidin-3-yl)methyl)-N-methylpyrrolidine-3-carboxamide] | 1.9 nM
13 | COc1nc(-c2cccc(-c3cccc(-c4cc5ncc(CNC[C@@H]6CCC(=O)N6)cc5cn4)c3Cl)c2Cl)ccc1CNC[C@@H]1CCC(=O)N1 [Example 258, (S)-5-((((6-(2,2′-Dichloro-3′-(3-(((((S)-5-oxopyrrolidin-2-yl)methyl)amino)methyl)-1,6-naphthyridin-7-yl)-[1,1′-biphenyl]-3-yl)-2-methoxypyridin-3-yl)methyl)amino)methyl) pyrrolidin-2-one] | 0.1 nM
14 | COc1nc(-c2cccc(-c3cccc(-c4ccn5c(=O)c(CN[C@@H](C)C(N)=O)cnc5c4)c3Cl)c2Cl)ccc1CNC[C@@H]1CCC(=O)N1 [Example 260, (2S)-2-[[8-[2-Chloro-3-[2-chloro-3-[6-methoxy-5-[[[(2S)-5-oxopyrrolidin-2-yl]methylamino]methyl]-2-pyridyl]phenyl]phenyl]-4-oxo-pyrido[1,2-a]pyrimidin-3-yl]methylamino]propenamide] | 0.1 nM
15 | O=C1CC[C@@H](CNCc2cnc3cc(-c4cccc(-c5cccc(-c6ccc7c(n6)OCCNC7)c5Cl)c4Cl)ccn3c2=O)N1 [Example 261, (S)-8-(2,2′-Dichloro-3′-(2,3,4,5-tetrahydropyrido[3,2-f][1,4]oxazepin-8-yl)-[1,1′-biphenyl]-3-yl)-3-((((5-oxopyrrolidin-2-yl)methyl)amino)methyl)-4H-pyrido[1,2-a]pyrimidin-4-one] | 250 nM
16 | COc1nc(-c2cccc(-c3cccc(-c4ccn5c(=O)c(CNC[C@H](C)O)c(OC)nc5c4)c3Cl)c2Cl)ccc1CNC[C@@H]1CCC(=O)N1 [Example 262] | 6.1 nM
17 | CNC(=O)[C@H](C)N(C)Cc1cnc2cc(-c3cccc(-c4cccc(-c5ccc(CNC[C@@H]6CCC(=O)N6)c(OC)n5)c4Cl)c3Cl)ccn2c1=O [Example 263, (S)-2-(((8-(2,2′-dichloro-3′-(6-methoxy-5-(((((S)-5-oxopyrrolidin-2-yl)methyl)amino)methyl)pyridin-2-yl)-[1,1′-biphenyl]-3-yl)-4-oxo-4H-pyrido[1,2-a]pyrimidin-3-yl)methyl)(methyl)amino)-N-methylpropanamide] | 0.6 nM
18 | COc1nc(-c2cccc(-c3cccc(-c4ccn5c(=O)c(CNCCN6CCNC(=O)C6)cnc5c4)c3Cl)c2Cl)ccc1CNC[C@@H]1CCC(=O)N1 [Example 264, (S)-8-(2,2′-dichloro-3′-(6-methoxy-5-((((5-oxopyrrolidin-2-yl)methyl)-amino)-methyl)-pyridin-2-yl)-[1,1′-biphenyl]-3-yl)-3-(((2-(3-oxopiperazin-1-yl)ethyl)amino)methyl)-4H-pyrido[1,2-a]pyrimidin-4-one] | 0.1 nM
19 | COC(=O)[C@H]1CCN(Cc2c(C)nc3cc(-c4cccc(-c5cccc(-c6ccc(CNC[C@@H]7CCC(=O)N7)c(OC)n6)c5Cl)c4Cl)ccn3c2=O)C1 [Example 265, (S)-Methyl 1-((8-(2,2′-dichloro-3′-(6-methoxy-5-(((((S)-5-oxopyrrolidin-2-yl)methyl)amino)methyl)pyridin-2-yl)-[1,1′-biphenyl]-3-yl)-2-methyl-4-oxo-4H-pyrido[1,2-a]pyrimidin-3-yl)methyl)pyrrolidine-3-carboxylate] | 0.7 nM
20 | COc1nc(-c2cccc(-c3cccc(-c4ccn5c(=O)c(CNCCN6CCS(=O)(=O)CC6)cnc5c4)c3Cl)c2Cl)ccc1CNC[C@@H]1CCC(=O)N1 [Example 266, (S)-8-(2,2′-dichloro-3′-(6-methoxy-5-((((5-oxopyrrolidin-2-yl)methyl)-amino)methyl)-pyridin-2-yl)-[1,1′-biphenyl]-3-yl)-3-(((2-(1,1-dioxidothiomorpholino)-ethyl)-amino)-methyl)-4H-pyrido[1,2-a]pyrimidin-4-one] | 17.2 nM
21 | COc1nc(-c2cccc(-c3cccc(-c4ccc5c(n4)OCCN(CCO)C5)c3Cl)c2Cl)ccc1CNC[C@@H]1CCC(=O)N1 [Example 267, (S)-5-((((6-(2,2′-Dichloro-3′-(4-(2-hydroxyethyl)-2,3,4,5-tetrahydropyrido[3,2-f][1,4]oxazepin-8-yl)-[1,1′-biphenyl]-3-yl)-2-methoxypyridin-3-yl)methyl)amino)methyl)pyrrolidin-2-one] | 0.2 nM
